These results are taken from US6020370A, “Bridged cyclic amino acids as pharmaceutical agents” (Warner-Lambert Company, priority 1998, dated 2000).

This assay concerns the target T1, α2 δ subunit of a calcium channel (Sus scrofa, UniProt A0A287BIN3).
T1 construct: derived from porcine brain tissue; from tissue; host or cells: porcine brain tissue
In words: Radioligand binding assay using [^3 H]gabapentin and the α2 δ subunit derived from porcine brain tissue. To be noted: Table 1, [^3 H]gabapentin.

One may read the IC50 as the concentration needed to halve the response being measured.

T1 sequence (A0A287BIN3 entry or part of it): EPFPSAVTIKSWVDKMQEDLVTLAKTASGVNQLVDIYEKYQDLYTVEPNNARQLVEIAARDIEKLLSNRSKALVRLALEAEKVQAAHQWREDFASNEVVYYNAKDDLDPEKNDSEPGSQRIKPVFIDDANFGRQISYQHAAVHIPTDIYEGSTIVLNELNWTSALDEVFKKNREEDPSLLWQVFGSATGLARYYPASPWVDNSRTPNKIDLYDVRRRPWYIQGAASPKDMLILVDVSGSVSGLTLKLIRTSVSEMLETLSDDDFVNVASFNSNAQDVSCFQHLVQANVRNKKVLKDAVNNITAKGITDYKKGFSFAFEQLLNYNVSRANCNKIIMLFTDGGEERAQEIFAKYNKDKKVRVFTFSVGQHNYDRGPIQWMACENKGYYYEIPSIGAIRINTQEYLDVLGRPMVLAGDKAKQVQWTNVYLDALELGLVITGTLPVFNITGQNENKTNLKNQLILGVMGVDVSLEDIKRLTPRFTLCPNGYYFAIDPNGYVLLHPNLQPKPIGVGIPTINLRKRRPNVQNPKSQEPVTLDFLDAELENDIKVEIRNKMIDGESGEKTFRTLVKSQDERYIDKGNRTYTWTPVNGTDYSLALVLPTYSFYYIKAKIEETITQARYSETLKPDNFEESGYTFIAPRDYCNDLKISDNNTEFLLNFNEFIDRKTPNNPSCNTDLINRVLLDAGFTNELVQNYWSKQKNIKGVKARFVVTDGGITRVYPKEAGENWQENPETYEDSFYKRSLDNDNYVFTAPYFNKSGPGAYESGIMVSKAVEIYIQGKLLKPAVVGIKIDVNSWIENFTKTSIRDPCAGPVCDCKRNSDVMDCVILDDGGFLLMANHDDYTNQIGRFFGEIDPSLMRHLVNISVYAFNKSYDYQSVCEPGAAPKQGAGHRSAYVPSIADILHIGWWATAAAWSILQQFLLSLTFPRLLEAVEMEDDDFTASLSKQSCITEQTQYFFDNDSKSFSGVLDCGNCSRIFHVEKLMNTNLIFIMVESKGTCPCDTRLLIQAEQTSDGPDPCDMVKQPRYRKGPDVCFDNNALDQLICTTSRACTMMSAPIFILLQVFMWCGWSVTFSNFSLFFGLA

Regarding `NCC1(CC(=O)O)CC2CCC1C2` (racemic) [Compound 5], the IC50 was 103 nM.

As to `NCC1(CC(=O)O)C2CCCC1CCC2` (centres unmarked) [Compound 3], the IC50 is 47 nM.
